In US11382956B2, “Amylin analogues” (Zealand Pharma A/S, priority 2016, dated 2022):
Numbered stars: 1 amine (or outer) side, 2 acyl side, 3 side chain; on linkers, the order of the positions; unused ones are H or OH. Bridge positions count the residues as written; N and C are the ends. Square brackets hold non-standard residues; d marks the D form. Peptide text beside a SMILES is read from it. * marks the point of attachment. C20 diacid = O=C(O)CCCCCCCCCCCCCCCCCCC(=O)*; γGlu = O=C(O)[C@H](CCC(=O)[*:2])N[*:1]; Hyp = O=C(O)[C@@H]1C[C@@H](O)CN1; NMeI = CC[C@H](C)[C@H](NC)C(=O)O; Aad = N[C@@H](CCCC(=O)O)C(=O)O; Orn = NCCC[C@H](N)C(=O)O; Sar = CNCC(=O)O

Key:
[1] = biological target: T1, recombinant human amylin 3 receptor (hAMYR3) (Homo sapiens, UniProt O60896+P30988); test: hAMYR3 cAMP assay (AlphaScreen) in 1321N1 cells; assay type: cell-based; details: cAMP formation, 45 min stimulation
T1 construct: host or cells: human astrocytoma cell line 1321N1
T1 sequence (P30988 25-474): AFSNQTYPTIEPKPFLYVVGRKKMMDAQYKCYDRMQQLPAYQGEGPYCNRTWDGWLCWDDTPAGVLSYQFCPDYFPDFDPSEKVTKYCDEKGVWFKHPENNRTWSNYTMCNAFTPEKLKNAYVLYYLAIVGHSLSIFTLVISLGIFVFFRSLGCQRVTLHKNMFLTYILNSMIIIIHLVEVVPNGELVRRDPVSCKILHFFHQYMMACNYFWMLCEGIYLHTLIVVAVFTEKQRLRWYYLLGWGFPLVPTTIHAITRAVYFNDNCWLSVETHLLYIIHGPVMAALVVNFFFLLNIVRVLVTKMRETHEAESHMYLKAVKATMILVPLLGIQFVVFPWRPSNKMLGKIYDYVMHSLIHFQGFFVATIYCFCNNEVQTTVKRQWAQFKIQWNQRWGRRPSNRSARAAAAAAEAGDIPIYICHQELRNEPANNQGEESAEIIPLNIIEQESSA
T1 sequence (O60896 24-148 partner): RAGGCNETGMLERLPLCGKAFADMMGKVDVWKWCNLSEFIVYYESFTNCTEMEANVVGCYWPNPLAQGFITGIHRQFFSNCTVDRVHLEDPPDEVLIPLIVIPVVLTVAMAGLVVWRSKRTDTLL
Method in brief: (§1)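 1321N1 astrocytoma cells expressing recombinant human calcitonin receptor alone or with RAMP3 (AMY3) stimulated 45 min at room temperature with peptide in IBMX-containing buffer. cAMP quantified by AlphaScreen after 1 h bead incubation; EC50 fitted from at least 7 concentrations.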

[2] = biological target: T2, recombinant human calcitonin receptor (hCT-R) (Homo sapiens, UniProt P30988); test: hCT-R cAMP assay (AlphaScreen) in 1321N1 cells; assay type: cell-based; details: cAMP formation, 45 min stimulation
T2 construct: host or cells: human astrocytoma cell line 1321N1
T2 sequence (P30988 25-474): T1 sequence (P30988 25-474)
Method in brief: as §1

[3] = Assessment of physical stability: fibril formation by Thioflavin T fluorescence; assay type: physicochemical; design: key: FND = fibrillation not detected; FD = fibrillation detected; details: 1 mg/mL peptide; for Fibrillation (in buffer) pH4 acetate: 50 mM acetate buffer pH 4.0, 96 hours at 40° C.; for Fibrillation (in buffer) pH7 histidine: 50 mM histidine buffer pH 7.0, 96 hours at 40° C.; for Fibrillation (in buffer) pH7 phosphate: 50 mM phosphate buffer pH 7.0, 96 hours at 40° C.
Method in brief: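 Test peptide at 1 mg/mL with 40 μM ThT in 50 mM phosphate pH 7.0, 50 mM histidine pH 7.0, or 50 mM acetate pH 4.0, in triplicate. Fluorescence read every 10 min after 300 s agitation for 96 hours at 40° C; significant intensity rise scored as fibrillation detected (FD).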

[4] = Assessment of chemical stability in 40 mM buffers at 40° C. (RP-HPLC); assay type: physicochemical; details: 1 mg/mL; for % degradation after 72 h at 40° C. pH4 acetate: acetate buffer pH 4, 72 h; for % degradation after 14 days at 40° C. pH4 acetate: acetate buffer pH 4, 14 days; for % degradation after 72 h at 40° C. pH6 phosphate: phosphate buffer pH 6, 72 h; for % degradation after 14 days at 40° C. pH6 phosphate: phosphate buffer pH 6, 14 days; for % degradation after 72 h at 40° C. pH7 phosphate: phosphate buffer pH 7, 72 h; for % degradation after 14 days at 40° C. pH7 phosphate: phosphate buffer pH 7, 14 days
Method in brief: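 Peptides at 1 mg/mL in 40 mM acetate pH 4 or phosphate pH 6 and 7 were held at 40° C for 3 and 14 days. Main-peak area-% by C8 RP-HPLC, UV 220 nm; % degradation = change in main-peak area-% versus t=0.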

[5] = Effect on acute food intake and body weight in normal Sprague Dawley rats; assay type: in vivo, Sprague Dawley (SD) rats; details: Dose: 30 nmol/kg sc, vehicle-corrected
Source text: Sprague Dawley (SD) rats were obtained from Janvier Labs, France. The animals arrived at least 14 days before the study start to allow acclimatization to experimental conditions. From arrival and throughout the study, the rats were housed in groups of 2 to 4 (n=2-4) in a light-, temperature- and humidity-controlled room. Animals had access ad libitum to food (KLIBA 3430, Provimi Kliba AG, Switzerland) and water (domestic quality tap water) during the entire study. Per group 6-8 rats were included. A vehicle group and positive control group were included in each set of tests. […] Dosing volume was 2 ml/kg. Food intake was recorded online using an automated food intake system (HM02, MBRose, Denmark) for 4 days or manually at 0 h for a predose and then 24, 48, 72 and 96 h post dosing. Body weight was measured daily.
Statistical analyses were performed using GraphPad™ Prism version 7. The measured parameters were compared using two-way ANOVA followed by Dunnett's multiple comparison tests. Differences were considered statistically significant at p<0.05.

[6] = Pharmacokinetic (PK) profiling in rats; details: male, Sprague Dawley, plasma; rat, single sc bolus 30 nmol/kg; read-out: in vivo half life t1/2 (plasma terminal elimination half-life) (converted)
Experimental: Sprague Dawley male rats were given a single subcutaneous (sc) bolus of each peptide to be tested, as specified below.
30 nmol/kg doses of compound were administered. Blood samples were drawn from the tail vein prior to dosing and at 24 and 96 hours after dosing. The rats were euthanized immediately after the last blood sampling by concussion and cervical dislocation.
The dosing vehicle used for each test peptide was a mannitol-containing histidine buffer (pH 7.0). Plasma samples were analyzed after precipitation with ethanol by liquid chromatography mass spectrometry (LC-MS/MS). Mean plasma concentrations were used for calculation of the pharmacokinetic parameters.
Plasma terminal elimination half-life (t1/2) was determined as In(2)/λz, where λz is the magnitude of the slope of the log linear regression of the log concentration versus time profile during the terminal phase.

Row | EC50 [1] | EC50 [2] | Fibrillation (in buffer) pH4 acetate [3] | Fibrillation (in buffer) pH7 histidine [3] | Fibrillation (in buffer) pH7 phosphate [3] | % degradation after 72 h at 40° C. pH4 acetate [4] | % degradation after 14 days at 40° C. pH4 acetate [4] | % degradation after 72 h at 40° C. pH6 phosphate [4] | % degradation after 14 days at 40° C. pH6 phosphate [4] | % degradation after 72 h at 40° C. pH7 phosphate [4] | % degradation after 14 days at 40° C. pH7 phosphate [4] | half-life [6] | SMILES | Body weight reduction in % at 48 h [5] | Food intake reduction in % at 48 h [5]
1 | 92 pM | 160 pM | FND | FND | FND | <1% | 1.6% | <1% | <1% | <1% | 6.4% | 31.9 h | CC[C@H](C)[C@@H](C(=O)N[C@@H](CC(C)C)C(=O)N[C@@H](CO)C(=O)N[C@@H](CO)C(=O)N[C@H](C(=O)N[C@@H](CCC(=O)O)C(=O)N[C@H](C(=O)NCC(=O)N[C@@H](CO)C(=O)N[C@@H](CC(N)=O)C(=O)N[C@H](C(=O)N1C[C@H](O)C[C@H]1C(N)=O)[C@@H](C)O)C(C)C)[C@@H](C)O)N(C)C(=O)[C@H](C)NC(=O)CN(C)C(=O)[C@H](Cc1ccccc1)NC(=O)[C@H](CO)NC(=O)[C@H](CO)NC(=O)[C@H](CCCNC(=N)N)NC(=O)[C@H](CCC(N)=O)NC(=O)[C@H](CC(C)C)NC(=O)[C@H](Cc1ccccc1)NC(=O)[C@H](Cc1c[nH]cn1)NC(=O)[C@H](C)NC(=O)[C@H](CC(C)C)NC(=O)[C@H](CCCNC(=N)N)NC(=O)[C@H](CCC(=O)O)NC(=O)[C@@H](NC(=O)[C@H](C)NC(=O)[C@@H]1CCCNC(=O)C[C@H](NC(=O)[C@H](CCCNC(=N)N)NC(=O)CC[C@H](NC(=O)CC[C@H](NC(=O)CCCCCCCCCCCCCCCCCCC(=O)O)C(=O)O)C(=O)O)C(=O)NCC(=O)N[C@@H]([C@@H](C)O)C(=O)N[C@@H](C)C(=O)N[C@@H]([C@@H](C)O)C(=O)N1)[C@@H](C)O [Compound 4, [19CD]-isoGlu-isoGlu-RD()GTAT-Orn()-ATERLAHFLQRSSF-Gly(Me)-A-Ile(Me)-LSSTEVGSNT-Hyp-NH2] ({C20 diacid-γGlu-γGlu}-RDGTAT[Orn]ATERLAHFLQRSSF[Sar]A[NMeI]LSSTEVGSNT[Hyp]-NH2; lactam 2-7) | 4.6% | 34%
2 | 28 pM | 66 pM | FND | FND | FND | <1% | 2% | <1% | <1% | 1.4% | <1% | 36.1 h | CC[C@H](C)[C@@H](C(=O)N[C@@H](CC(C)C)C(=O)N[C@@H](CO)C(=O)N[C@@H](CO)C(=O)N[C@H](C(=O)N[C@@H](CCC(=O)O)C(=O)N[C@H](C(=O)NCC(=O)N[C@@H](CO)C(=O)N[C@@H](CC(N)=O)C(=O)N[C@H](C(=O)N1C[C@H](O)C[C@H]1C(N)=O)[C@@H](C)O)C(C)C)[C@@H](C)O)N(C)C(=O)[C@H](C)NC(=O)CN(C)C(=O)[C@H](Cc1ccccc1)NC(=O)[C@H](CO)NC(=O)[C@H](CO)NC(=O)[C@H](CCCNC(=N)N)NC(=O)[C@H](CCC(N)=O)NC(=O)[C@H](CC(C)C)NC(=O)[C@H](Cc1ccccc1)NC(=O)[C@H](CCCC(=O)O)NC(=O)[C@H](C)NC(=O)[C@H](CC(C)C)NC(=O)[C@H](CCCNC(=N)N)NC(=O)[C@H](CCC(=O)O)NC(=O)[C@@H](NC(=O)[C@H](C)NC(=O)[C@@H]1CCCCNC(=O)C[C@H](NC(=O)[C@H](CCCNC(=N)N)NC(=O)CC[C@H](NC(=O)CCCCCCCCCCCCCCCCCCC(=O)O)C(=O)O)C(=O)NCC(=O)N[C@@H]([C@@H](C)O)C(=O)N[C@@H](C)C(=O)N[C@@H]([C@@H](C)O)C(=O)N1)[C@@H](C)O [Compound 35, [19CD]-isoGlu-RD()GTATK()ATERLA-Aad-FLQRSSF-Gly(Me)-A-Ile(Me)-LSSTEVGSNT-Hyp-NH2] ({C20 diacid-γGlu}-RDGTATKATERLA[Aad]FLQRSSF[Sar]A[NMeI]LSSTEVGSNT[Hyp]-NH2; lactam 2-7) | 12% | 72%
3 | 31 pM | 85 pM | FND | FND | FND | <1% | <1% | <1% | 1.0% | <1% | 1.9% | 30.1 h | CC[C@H](C)[C@@H](C(=O)N[C@@H](CC(C)C)C(=O)N[C@@H](CO)C(=O)N[C@@H](CO)C(=O)N[C@H](C(=O)N[C@@H](CCC(=O)O)C(=O)N[C@H](C(=O)NCC(=O)N[C@@H](CO)C(=O)N[C@@H](CC(N)=O)C(=O)N[C@H](C(=O)N1C[C@H](O)C[C@H]1C(N)=O)[C@@H](C)O)C(C)C)[C@@H](C)O)N(C)C(=O)[C@H](C)NC(=O)CN(C)C(=O)[C@H](Cc1ccccc1)NC(=O)[C@H](CO)NC(=O)[C@H](CO)NC(=O)[C@H](CCCNC(=N)N)NC(=O)[C@H](CCC(N)=O)NC(=O)[C@H](CC(C)C)NC(=O)[C@H](Cc1ccccc1)NC(=O)[C@H](Cc1c[nH]cn1)NC(=O)[C@H](C)NC(=O)[C@H](CC(C)C)NC(=O)[C@H](CCCNC(=N)N)NC(=O)[C@H](CCC(=O)O)NC(=O)[C@@H](NC(=O)[C@H](C)NC(=O)[C@@H]1CCCCNC(=O)C[C@H](NC(=O)[C@H](CCCNC(=N)N)NC(=O)CC[C@H](NC(=O)CCCCCCCCCCCCCCCCCCC(=O)O)C(=O)O)C(=O)NCC(=O)N[C@@H]([C@@H](C)O)C(=O)N[C@@H](C)C(=O)N[C@@H]([C@@H](C)O)C(=O)N1)[C@@H](C)O [Compound 18, [19CD]-isoGlu-RD()GTATK()ATERLAHFLQRSSF-Gly(Me)-A-Ile(Me)-LSSTEVGSNT-Hyp-NH2] ({C20 diacid-γGlu}-RDGTATKATERLAHFLQRSSF[Sar]A[NMeI]LSSTEVGSNT[Hyp]-NH2; lactam 2-7) | 10% | 58%
